Results on four sequences are retold here after patent US20070128217A1 (priority 2003, published 2007).

Assay [1] concerns control sera (pooled serum of ten healthy LUMC hospital workers; commercial negative donor pooled serum from the Dutch bloodbank). It is filed as binding, human. Details: Binding of Control serum LUMC to linear peptides / Binding of Control serum Blood-bank to linear peptides / Binding of Control serum LUMC to looped peptides / Binding of Control Serum Blood-Bank to Looped peptides / Binding of Control serum LUMC to linear peptides of the protein M of SARS-CoV Urbani / Binding of Control serum Blood-bank to linear peptides of the protein M of SARS-CoV Urbani / Binding of Control serum LUMC to looped peptides of the protein M of SARS-CoV Urbani / Binding of Control Serum Blood-Bank to Looped peptides of the protein M of SARS-CoV Urbani: unit not given here.

Assay [2] relates to rabbit serum obtained by immunizing a rabbit with the SARS-CoV strain Frankfurt 1. In kind it is binding. Details: Binding of a rabbit serum to linear peptides / Binding of a rabbit serum to looped peptides / Rabbit serum linear peptides / Rabbit serum looped peptides / Binding of a rabbit serum to linear peptides of protein N of SARS-CoV Urbani (Rabbit serum linear peptides) / Binding of a rabbit serum to looped/cyclic peptides of protein N of SARS-CoV Urbani (Rabbit serum looped peptides): unit not given here.

In assay [3] the test system is antibodies in sera from SARS patients (sera 1a, 1b, 2, 6, 37, 62, London, SARS-yellow, SARS-green). In kind it is binding, human. Details: Binding of serum 6 to linear peptides of protein X1 of SARS-CoV Urbani / Binding of serum 37 to linear peptides of protein X1 of SARS-CoV Urbani / Binding of serum 6 to looped/cyclic peptide (PEPSCAN-ELISA) / Binding of serum 37 to looped/cyclic peptide (PEPSCAN-ELISA) / Binding of serum 37 to looped/cyclic peptides of protein X1 of SARS-CoV Urbani / Binding of serum 6 to linear peptides of protein X2 / Binding of serum 37 to linear peptides of protein X2 / Binding of serum 37 to looped/cyclic peptides of protein X2 of SARS-CoV Urbani / Binding of serum 6 to linear peptides of protein M of SARS-CoV Urbani / Binding of serum 37 to linear peptides of protein M of SARS-CoV Urbani / Binding of serum 6 to looped/cyclic peptides of protein M of SARS-CoV Urbani / Binding of serum 37 to looped/cyclic peptides of protein M of SARS-CoV Urbani / Binding of serum 6 to linear peptides of protein X3 of SARS-CoV Urbani / Binding of serum 37 to linear peptides of protein X3 of SARS-CoV Urbani / Binding of serum 37 to looped/cyclic peptides of protein X3 of SARS-CoV Urbani / Binding of serum 6 to linear peptides of protein X4 of SARS-CoV Urbani / Binding of serum 37 to linear peptides of protein X4 of SARS-CoV Urbani / Binding of serum 37 to looped/cyclic peptides of protein X4 of SARS-CoV Urbani / Binding of serum 6 to linear peptides of protein X5 of SARS-CoV Urbani / Binding of serum 37 to linear peptides of protein X5 of SARS-CoV Urbani / Binding of serum 37 to looped/cyclic peptides of protein X5 of SARS-CoV Urbani / Binding of serum 6 to linear peptides of protein N of SARS-CoV Urbani / Binding of serum 37 to linear peptides of protein N of SARS-CoV Urbani / Binding of serum 6 to linear peptide (PEPSCAN-ELISA) / Binding of serum 1a to looped/cyclic peptides of protein N of SARS-CoV Urbani / Binding of serum 1b to looped/cyclic peptides of protein N of SARS-CoV Urbani / Binding of serum 2 to looped/cyclic peptides of protein N of SARS-CoV Urbani / Binding of serum 6 to looped/cyclic peptides of protein N of SARS-CoV Urbani / Binding of serum 37 to looped/cyclic peptides of protein N of SARS-CoV Urbani / Binding of serum 62 to looped/cyclic peptides of protein N of SARS-CoV Urbani / Binding of serum London to looped/cyclic peptides of protein N of SARS-CoV Urbani / Binding of serum SARS-green to looped/cyclic peptides of protein N of SARS-CoV Urbani: unit not given here.

Regarding VTRPLMESELVIGAV, in assay [1], the “Binding of Control Serum Blood-Bank to Looped peptides of the protein M of SARS-CoV Urbani” value amounted to 0.9, the “Binding of Control serum Blood-bank to linear peptides of the protein M of SARS-CoV Urbani” value is on record as 0.6, the “Binding of Control serum LUMC to linear peptides of the protein M of SARS-CoV Urbani” value is listed as 0.4 and the “Binding of Control serum LUMC to looped peptides of the protein M of SARS-CoV Urbani” value worked out at 1.0. Also, in assay [2], the “Rabbit serum linear peptides” value was determined as 0.4 and the “Rabbit serum looped peptides” value worked out at 0.2. In assay [3], the “Binding of serum 1a to linear peptides of protein M of SARS-CoV Urbani” value turned out to be 0.8, the “Binding of serum 1b to linear peptides of protein M of SARS-CoV Urbani” value amounted to 0.6, the “Binding of serum 2 to linear peptides of protein M of SARS-CoV Urbani” value was determined as 0.9 and the “Binding of serum 6 to linear peptides of protein M of SARS-CoV Urbani” value is recorded as 0.2. Also, in assay [3], the “Binding of serum 37 to linear peptides of protein M of SARS-CoV Urbani” value worked out at 1.0, the “Binding of serum 62 to linear peptides of protein M of SARS-CoV Urbani” value is listed as 0.9, the “Binding of serum London to linear peptides of protein M of SARS-CoV Urbani” value was found to be 0.3 and the “Binding of serum SARS-green to linear peptides of protein M of SARS-CoV Urbani” value amounted to 0.3. Also, in assay [3], the “Binding of serum SARS-yellow to linear peptides of protein M of SARS-CoV Urbani” value is listed as 0.1; the “Recognition of the peptide by sera of SARS-CoV infected individuals, and form (linear, looped/cyclic) in which it is recognized” value is on record as “recognized in looped/cyclic form”.

In the case of VVTEGDGISTPKLKE, in assay [1], the “Binding of Control Serum Blood-Bank to Looped peptides” value came to 0.3, the “Binding of Control serum Blood-bank to linear peptides” value is given as 0.3, the “Binding of Control serum LUMC to linear peptides” value turned out to be 0.2 and the “Binding of Control serum LUMC to looped peptides” value is 0.3. Further, in assay [2], the “Binding of a rabbit serum to linear peptides” value is given as 0.1 and the “Binding of a rabbit serum to looped peptides” value is recorded as 0.4. Besides, in assay [3], the “Binding of serum 1a to linear peptides of protein X1 of SARS-CoV Urbani” value is listed as 0.5, the “Binding of serum 1a to looped/cyclic peptides of protein X1 of SARS-CoV Urbani” value is recorded as 0.3, the “Binding of serum 1b to linear peptides of protein X1 of SARS-CoV Urbani” value was 0.4 and the “Binding of serum 1b to looped/cyclic peptides of protein X1 of SARS-CoV Urbani” value was 0.3. For the same sequence, in assay [3], the “Binding of serum 2 to linear peptides of protein X1 of SARS-CoV Urbani” value came to 0.3, the “Binding of serum 2 to looped/cyclic peptides of protein X1 of SARS-CoV Urbani” value is recorded as 0.1, the “Binding of serum 6 to linear peptides of protein X1 of SARS-CoV Urbani” value is 0.2 and the “Binding of serum 6 to looped/cyclic peptides of protein X1 of SARS-CoV Urbani” value came out at 0.2. Moreover, in assay [3], the “Binding of serum 37 to linear peptides of protein X1 of SARS-CoV Urbani” value is 0.4, the “Binding of serum 37 to looped/cyclic peptides of protein X1 of SARS-CoV Urbani” value is reported as 0.3, the “Binding of serum 62 to linear peptides of protein X1 of SARS-CoV Urbani” value turned out to be 0.3 and the “Binding of serum 62 to looped/cyclic peptides of protein X1 of SARS-CoV Urbani” value is 0.3. In addition, in assay [3], the “Binding of serum London to linear peptides of protein X1 of SARS-CoV Urbani” value came to 0.3, the “Binding of serum London to looped/cyclic peptides of protein X1 of SARS-CoV Urbani” value turned out to be 0.2, the “Binding of serum SARS-green to linear peptides of protein X1 of SARS-CoV Urbani” value is 0.1 and the “Binding of serum SARS-green to looped/cyclic peptides of protein X1 of SARS-CoV Urbani” value amounted to 0.1. In assay [3], the “Binding of serum SARS-yellow to linear peptides of protein X1 of SARS-CoV Urbani” value stood at 0.1 and the “Binding of serum SARS-yellow to looped/cyclic peptides of protein X1 of SARS-CoV Urbani” value is given as 0.2.

Take VYYQLESTQITTDTG: in assay [1], the “Binding of Control Serum Blood-Bank to Looped peptides” value came out at 0.3, the “Binding of Control serum Blood-bank to linear peptides” value was 0.4, the “Binding of Control serum LUMC to linear peptides” value is 0.4 and the “Binding of Control serum LUMC to looped peptides” value is 0.3. In assay [2], the “Binding of a rabbit serum to linear peptides” value was found to be 0.1 and the “Binding of a rabbit serum to looped peptides” value stood at 0.5. Also, in assay [3], the “Binding of serum 1a to linear peptides of protein X1 of SARS-CoV Urbani” value is on record as 0.6, the “Binding of serum 1a to looped/cyclic peptides of protein X1 of SARS-CoV Urbani” value is reported as 0.4, the “Binding of serum 1b to linear peptides of protein X1 of SARS-CoV Urbani” value was 0.5 and the “Binding of serum 1b to looped/cyclic peptides of protein X1 of SARS-CoV Urbani” value is reported as 0.2. Moreover, in assay [3], the “Binding of serum 2 to linear peptides of protein X1 of SARS-CoV Urbani” value amounted to 0.4, the “Binding of serum 2 to looped/cyclic peptides of protein X1 of SARS-CoV Urbani” value is recorded as 0.1, the “Binding of serum 6 to linear peptides of protein X1 of SARS-CoV Urbani” value worked out at 0.4 and the “Binding of serum 6 to looped/cyclic peptides of protein X1 of SARS-CoV Urbani” value is recorded as 0.1. Further, in assay [3], the “Binding of serum 37 to linear peptides of protein X1 of SARS-CoV Urbani” value is given as 0.6, the “Binding of serum 37 to looped/cyclic peptides of protein X1 of SARS-CoV Urbani” value was determined as 0.4, the “Binding of serum 62 to linear peptides of protein X1 of SARS-CoV Urbani” value is 0.5 and the “Binding of serum 62 to looped/cyclic peptides of protein X1 of SARS-CoV Urbani” value stood at 0.3. In assay [3], the “Binding of serum London to linear peptides of protein X1 of SARS-CoV Urbani” value is reported as 0.2, the “Binding of serum London to looped/cyclic peptides of protein X1 of SARS-CoV Urbani” value was determined as 0.2, the “Binding of serum SARS-green to linear peptides of protein X1 of SARS-CoV Urbani” value was found to be 0.2 and the “Binding of serum SARS-green to looped/cyclic peptides of protein X1 of SARS-CoV Urbani” value is on record as 0.2. In assay [3], the “Binding of serum SARS-yellow to linear peptides of protein X1 of SARS-CoV Urbani” value was determined as 0.3 and the “Binding of serum SARS-yellow to looped/cyclic peptides of protein X1 of SARS-CoV Urbani” value was 0.1.

On to WIMLLQFAYSNRNRF, for which, in assay [1], the “Binding of Control Serum Blood-Bank to Looped peptides of the protein M of SARS-CoV Urbani” value is recorded as 0.7, the “Binding of Control serum Blood-bank to linear peptides of the protein M of SARS-CoV Urbani” value is reported as 0.7, the “Binding of Control serum LUMC to linear peptides of the protein M of SARS-CoV Urbani” value came to 0.3 and the “Binding of Control serum LUMC to looped peptides of the protein M of SARS-CoV Urbani” value came out at 0.7. In addition, in assay [2], the “Rabbit serum linear peptides” value came to 0.8 and the “Rabbit serum looped peptides” value stood at 0.3. Moreover, in assay [3], the “Binding of serum 1a to linear peptides of protein M of SARS-CoV Urbani” value stood at 0.6, the “Binding of serum 1a to looped/cyclic peptides of protein M of SARS-CoV Urbani” value was 0.7, the “Binding of serum 1b to linear peptides of protein M of SARS-CoV Urbani” value worked out at 0.5 and the “Binding of serum 1b to looped/cyclic peptides of protein M of SARS-CoV Urbani” value was 0.6. In addition, in assay [3], the “Binding of serum 2 to linear peptides of protein M of SARS-CoV Urbani” value was 0.5, the “Binding of serum 2 to looped/cyclic peptides of protein M of SARS-CoV Urbani” value is reported as 0.4, the “Binding of serum 6 to linear peptides of protein M of SARS-CoV Urbani” value is 0.3 and the “Binding of serum 6 to looped/cyclic peptides of protein M of SARS-CoV Urbani” value came to 0.8. Also, in assay [3], the “Binding of serum 37 to linear peptides of protein M of SARS-CoV Urbani” value turned out to be 0.7, the “Binding of serum 37 to looped/cyclic peptides of protein M of SARS-CoV Urbani” value was 0.4, the “Binding of serum 62 to linear peptides of protein M of SARS-CoV Urbani” value is given as 0.7 and the “Binding of serum 62 to looped/cyclic peptides of protein M of SARS-CoV Urbani” value was determined as 0.6. Further, in assay [3], the “Binding of serum London to linear peptides of protein M of SARS-CoV Urbani” value is on record as 0.3, the “Binding of serum London to looped/cyclic peptides of protein M of SARS-CoV Urbani” value was found to be 0.2, the “Binding of serum SARS-green to linear peptides of protein M of SARS-CoV Urbani” value is listed as 0.3 and the “Binding of serum SARS-green to looped/cyclic peptides of protein M of SARS-CoV Urbani” value is 0.2. Moreover, in assay [3], the “Binding of serum SARS-yellow to linear peptides of protein M of SARS-CoV Urbani” value came out at 0.1 and the “Binding of serum SARS-yellow to looped/cyclic peptides of protein M of SARS-CoV Urbani” value was found to be 0.3.
